# Test results as given in patent publication US20250271442A1, “Methods for Detecting Renal Disease” (IDEXX Laboratories, Inc., priority 2013, published 2025).
# Assays:
# Format in all cases: binding
# [1] = system: polyclonal antibody from Rabbit No. 154 (anti-SDMA); assay: Competitive ELISA, specificity with greater stringency, polyclonal antibody from Rabbit No. 154; details: polyclonal antibody from Rabbit No. 154, determined with greater stringency
# Procedure: (§1) 50 μl of the SDMA-HRP conjugate (as described in Example 5 below), 50 μl of ADMA, SDMA, N-methylarginine or L-arginine (at concentrations from 1-100 μg/ml as described above), and 50 μl of rabbit anti-SDMA antibody in serum (1:3000 titer) were sequentially added to an individual well in a 96-well polystyrene microwell plate, precoated with sheep anti-rabbit IgG (commercially available from Beacon Analytical Systems Inc. of Portland, ME). After a 30 minutes incubation period at room temperature, the wells were washed 4 times with PBST (Phosphate Buffered Saline, 0.05% Tween).
# (§2) 100 μl of 3,3′,5,5′-Tetramethylbenzidine (commercially available from Promega Corporation of Madison, WI) was subsequently added. Following a 30 minutes incubation period at room temperature, 100 μl of stop solution (1 N HCl) was added and the absorbance was measured at 450 nm using a BioTek ELX 808 (Winooski, VT) plate reader. The data was subjected to quantification using Softmax software (Molecular Devices, Sunnyvale, CA).
# (§3) The absorbance values obtained with 0 μg/mL, 1 μg/mL, 10 μg/mL, and 100 μg/mL of ADMA, SDMA, N-methylarginine or L-arginine, respectively, were determined and plotted. The concentration of SDMA at which the absorbance value was reduced by 50% (relative to the maximum absorbance obtained at 0 μg/mL SDMA; i.e. IC50) was divided by each of the concentrations of ADMA, N-methylarginine or L-arginine, respectively, at which the absorbance value was reduced by 50% (IC50). The resulting value was multiplied by 100 to obtain the value “% cross-reactivity”.
# In another experiment, using only polyclonal antibody from Rabbit No. 154, the specificity of the antibody was determined with greater stringency by the method described above.
# [2] = system: rabbit anti-SDMA antibody in serum, Rabbit # 152 (SDMA-KLH immunogen); assay: Competitive ELISA, specificity of rabbit anti-SDMA antiserum, Rabbit #152; details: Rabbit # 152 antiserum (1:5K); for % Cross Reactivity: IC50 of SDMA / IC50 of competitor x 100; for IC 50: competition with SDMA-HRP conjugate, absorbance 450 nm
# Procedure: (§4) The immunization protocol for generating the anti-SDMA antibodies was carried out according to the following protocol. Six California breed rabbits were immunized with an SDMA-conjugate. Three of the six rabbits were immunized with SDMA conjugated with BSA (rabbits #155, 156 and 157) and the other three rabbits were immunized with SDMA conjugated with KLH (rabbits #152, 153 and 154) (prepared as described in Example 2). For primary immunizations, each rabbit was injected with 0.5 mg of the SDMA conjugate in 1 ml of phosphate buffered saline (PBS) mixed with 1 ml of Freund's complete adjuvant. Each rabbit received 20-30 intradermal injections on their shaved back. Each rabbit was boosted with 0.25 mg of immunogen in 1 ml PBS mixed with equal volume of Freund's incomplete adjuvant in the hind legs. The boosting shots were given each month after the primary injection. Test bleeds of 5 ml blood were taken from each rabbit 7-10 days after each boost. Production bleeds of 40 ml were taken from each rabbit after the third booster shot, when the antisera titer was greater than about 1:2000. Antiserum titer is the dilution of antiserum that generates the steepest calibration curve for the assay.
# (§5) In order to assess the specificity of the antibodies obtained by the procedures described in Example 3 above, their reactivity to SDMA, ADMA, L-arginine, and/or N-methylarginine was measured in a competitive ELISA assay (Table 1).
# (§6) ADMA-2HCl, SDMA-2HCl, N-methylarginine acetate (Sigma, Cat. No. M7033) or L-arginine (Sigma, Cat. No. A5006) were each dissolved in PBS to make stock solutions at 1 mg/ml. From these stock solutions, working solutions at 100 μg/ml, 10 μg/ml and 1 μg/ml were prepared in PBS.
# (§7) […] After a 30 minutes incubation period at room temperature, the wells were washed 4 times with PBST (Phosphate Buffered Saline, 0.05% Tween).
# as §2, §3
# [3] = system: rabbit anti-SDMA antibody in serum, Rabbit # 154 (SDMA-KLH immunogen); assay: Competitive ELISA, specificity of rabbit anti-SDMA antiserum, Rabbit #154; details: Rabbit # 154 antiserum (1.25K); for % Cross Reactivity: IC50 of SDMA / IC50 of competitor x 100; for IC 50: competition with SDMA-HRP conjugate, absorbance 450 nm
# Procedure: as §4, §5, §6, §7, §2, §3
# [4] = system: rabbit anti-SDMA antibody in serum, Rabbit # 155 (SDMA-BSA immunogen); assay: Competitive ELISA, specificity of rabbit anti-SDMA antiserum, Rabbit #155; details: Rabbit # 155 antiserum (1:3K); for % Cross Reactivity: IC50 of SDMA / IC50 of competitor x 100; for IC 50: competition with SDMA-HRP conjugate, absorbance 450 nm
# Procedure: as §4, §5, §6, §1, §2, §3
# [5] = system: rabbit anti-SDMA antibody in serum, Rabbit # 153 (SDMA-KLH immunogen); assay: Competitive ELISA, specificity of rabbit anti-SDMA antiserum, Rabbit #153; details: Rabbit # 153 antiserum (1:2.5K); for % Cross Reactivity: IC50 of SDMA / IC50 of competitor x 100; for IC 50: competition with SDMA-HRP conjugate, absorbance 450 nm
# Procedure: as §4, §5, §6, §7, §2, §3
# [6] = system: rabbit anti-SDMA antibody in serum, Rabbit # 157 (SDMA-BSA immunogen); assay: Competitive ELISA, specificity of rabbit anti-SDMA antiserum, Rabbit #157; details: Rabbit # 157 antiserum (1:15K); for % Cross Reactivity: IC50 of SDMA / IC50 of competitor x 100; for IC 50: competition with SDMA-HRP conjugate, absorbance 450 nm
# Procedure: as §4, §5, §6, §7, §2, §3
# [7] = system: rabbit anti-SDMA antibody in serum, Rabbit # 156 (SDMA-BSA immunogen); assay: Competitive ELISA, specificity of rabbit anti-SDMA antiserum, Rabbit #156; details: Rabbit # 156 antiserum (1:20K); for % Cross Reactivity: IC50 of SDMA / IC50 of competitor x 100; for IC 50: competition with SDMA-HRP conjugate, absorbance 450 nm
# Procedure: as §4, §5, §6, §7, §2, §3
IC 50 [2] [µg/mL],IC 50 [3] [µg/mL],IC 50 [4] [µg/mL],IC 50 [5] [µg/mL],IC 50 [6] [µg/mL],IC 50 [7] [µg/mL],Compound,Specificity (Cross-Reactivity) Rabbit No. 154 Cross-reactivity [1] [%],% Cross Reactivity [2] [%],% Cross Reactivity [3] [%],% Cross Reactivity [4] [%],% Cross Reactivity [5] [%],% Cross Reactivity [6] [%],% Cross Reactivity [7] [%]
>100,>100,>100,>100,>100,>100,"CN(C)C(=N)NCCCC(N)C(=O)O (stereo not drawn) [ADMA, asymmetrical dimethylarginine]",<0.2,<1,<1,<1,<1,<1,<1
>100,>100,79,>100,>100,>100,"CNC(=N)NCCCC(N)C(=O)O (stereo not drawn) [N-MMA, N-monomethylarginine]",,<1,<1,<1,<1,<1,<1
1.10,0.49,0.73,0.65,1.6,1.3,"C/N=C(\NC)NCCCC(N)C(=O)O (stereo not drawn) [SDMA, symmetrical dimethylarginine]",100,100,100,100,100,100,100

Compound,IC 50 [2] [µg/mL],IC 50 [3] [µg/mL],IC 50 [4] [µg/mL],IC 50 [5] [µg/mL],IC 50 [6] [µg/mL],IC 50 [7] [µg/mL],Specificity (Cross-Reactivity) Rabbit No. 154 Cross-reactivity [1] [%],% Cross Reactivity [2] [%],% Cross Reactivity [3] [%],% Cross Reactivity [4] [%],% Cross Reactivity [5] [%],% Cross Reactivity [6] [%],% Cross Reactivity [7] [%]
"N=C(N)NCCC[C@H](N)C(=O)O [L-Arginine, L-arginine]",>100,>100,>100,>100,>100,>100,<0.01,<1,<1,<1,<1,<1,<1
